Results: PubChem BioAssay (NCI)
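Cells were grown in 96-well plates and exposed to each compound for 48 hours at five concentrations; endpoints were interpolated linearly between bracketing concentrations, or set to the highest concentration if not reached. GI50 = concentration required for 50% inhibition of growth. Definition used: TGI = concentration required for complete inhibition of growth.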

What was measured:
Test in all cases: inhibition of tumour cell growth, NCI panel, 48 h
KM12 colon = system: KM12 colon
OVCAR-3 ovarian = system: OVCAR-3 ovarian
SK-MEL-5 melanoma = system: SK-MEL-5 melanoma
HL-60(TB) leukemia = system: HL-60(TB) leukemia
SNB-19 CNS = system: SNB-19 CNS
LOX IMVI melanoma = system: LOX IMVI melanoma
NCI-H23 lung = system: NCI-H23 lung
SK-MEL-2 melanoma = system: SK-MEL-2 melanoma
HT29 colon = system: HT29 colon
786-0 renal = system: 786-0 renal
OVCAR-4 ovarian = system: OVCAR-4 ovarian
NCI-H522 lung = system: NCI-H522 lung
U251 CNS = system: U251 CNS
MALME-3M melanoma = system: MALME-3M melanoma
UACC-62 melanoma = system: UACC-62 melanoma
COLO 205 colon = system: COLO 205 colon
NCI-H460 lung = system: NCI-H460 lung
SR leukemia = system: SR leukemia
A498 renal = system: A498 renal
HS 578T breast = system: HS 578T breast
OVCAR-5 ovarian = system: OVCAR-5 ovarian
ACHN renal = system: ACHN renal
SNB-75 CNS = system: SNB-75 CNS
NCI/ADR-RES ovarian = system: NCI/ADR-RES ovarian
MDA-MB-231 breast = system: MDA-MB-231 breast
NCI-H226 lung = system: NCI-H226 lung
SF-295 CNS = system: SF-295 CNS
RPMI-8226 leukemia = system: RPMI-8226 leukemia
T-47D breast = system: T-47D breast
TK-10 renal = system: TK-10 renal
HCT-15 colon = system: HCT-15 colon
RXF 393 renal = system: RXF 393 renal
UACC-257 melanoma = system: UACC-257 melanoma
DU-145 prostate = system: DU-145 prostate
SW-620 colon = system: SW-620 colon
M14 melanoma = system: M14 melanoma
MDA-MB-435 = system: MDA-MB-435
HCC-2998 colon = system: HCC-2998 colon
OVCAR-8 ovarian = system: OVCAR-8 ovarian
SN12C renal = system: SN12C renal
CAKI-1 renal = system: CAKI-1 renal
HCT-116 colon = system: HCT-116 colon
SF-268 CNS = system: SF-268 CNS
HOP-92 NSCLC = system: HOP-92 NSCLC
IGROV1 ovarian = system: IGROV1 ovarian
SK-OV-3 ovarian = system: SK-OV-3 ovarian
PC-3 prostate = system: PC-3 prostate
MCF7 breast = system: MCF7 breast
BT-549 breast = system: BT-549 breast
K-562 leukemia = system: K-562 leukemia
SF-539 CNS = system: SF-539 CNS
A549 NSCLC = system: A549 NSCLC
SK-MEL-28 melanoma = system: SK-MEL-28 melanoma
MOLT-4 leukemia = system: MOLT-4 leukemia
HOP-62 NSCLC = system: HOP-62 NSCLC
CCRF-CEM leukemia = system: CCRF-CEM leukemia
UO-31 renal = system: UO-31 renal

Molecule `CC1(C)N=C(N)N=C(N)N1c1cccc(OCCOc2cccc([N+](=O)[O-])c2)c1` has a GI50 (KM12 colon) of 1.37 µM, a TGI (KM12 colon) of over 100 µM and a GI50 (OVCAR-3 ovarian) of 5.13 µM. The TGI (OVCAR-3 ovarian) was over 100 µM, the GI50 (SK-MEL-5 melanoma) was 4.5 µM and the TGI (SK-MEL-5 melanoma) was 33.5 µM. For the same molecule, the GI50 (HL-60(TB) leukemia) was 1.18 µM, the TGI (HL-60(TB) leukemia) was over 77.8 µM and the GI50 (SNB-19 CNS) was 4.88 µM. The TGI (SNB-19 CNS) was over 100 µM, the GI50 (LOX IMVI melanoma) was 2.15 µM and the TGI (LOX IMVI melanoma) was over 100 µM. It also gave a GI50 (NCI-H23 lung) of 1.73 µM, a TGI (NCI-H23 lung) of over 100 µM and a GI50 (SK-MEL-2 melanoma) of 15.2 µM. It also gave a TGI (SK-MEL-2 melanoma) of over 100 µM, a GI50 (HT29 colon) of 0.583 µM and a TGI (HT29 colon) of over 100 µM. For the same molecule, the GI50 (786-0 renal) was 37 µM, the TGI (786-0 renal) was over 100 µM and the GI50 (OVCAR-4 ovarian) was 14.4 µM. The TGI (OVCAR-4 ovarian) was over 100 µM, the GI50 (NCI-H522 lung) was 1.19 µM and the TGI (NCI-H522 lung) was 62.5 µM. It also gave a GI50 (U251 CNS) of 0.808 µM, a TGI (U251 CNS) of over 100 µM and a GI50 (MALME-3M melanoma) of 7.54 µM. It also gave a TGI (MALME-3M melanoma) of over 100 µM, a GI50 (UACC-62 melanoma) of 2.28 µM and a TGI (UACC-62 melanoma) of over 100 µM. It also gave a GI50 (COLO 205 colon) of 2.13 µM, a TGI (COLO 205 colon) of over 100 µM and a GI50 (NCI-H460 lung) of 0.541 µM. It also gave a TGI (NCI-H460 lung) of over 100 µM, a GI50 (SR leukemia) of 0.543 µM and a TGI (SR leukemia) of over 100 µM. It also gave a GI50 (A498 renal) of over 67.7 µM, a TGI (A498 renal) of over 100 µM and a GI50 (HS 578T breast) of 33.5 µM. It also gave a TGI (HS 578T breast) of over 100 µM, a GI50 (OVCAR-5 ovarian) of 1.88 µM and a TGI (OVCAR-5 ovarian) of over 100 µM. The GI50 (ACHN renal) was over 100 µM, the TGI (ACHN renal) was over 100 µM and the GI50 (SNB-75 CNS) was 3.26 µM. It also gave a TGI (SNB-75 CNS) of over 100 µM, a GI50 (NCI/ADR-RES ovarian) of over 100 µM and a TGI (NCI/ADR-RES ovarian) of over 100 µM. The GI50 (MDA-MB-231 breast) was 10.2 µM, the TGI (MDA-MB-231 breast) was over 100 µM and the GI50 (NCI-H226 lung) was 48.6 µM. It also gave a TGI (NCI-H226 lung) of over 100 µM, a GI50 (SF-295 CNS) of 15 µM and a TGI (SF-295 CNS) of over 100 µM. The GI50 (RPMI-8226 leukemia) was 4.01 µM, the TGI (RPMI-8226 leukemia) was over 100 µM and the GI50 (T-47D breast) was 12.6 µM. The TGI (T-47D breast) was over 100 µM, the GI50 (TK-10 renal) was 66 µM and the TGI (TK-10 renal) was over 100 µM. The GI50 (HCT-15 colon) was over 100 µM, the TGI (HCT-15 colon) was over 100 µM and the GI50 (RXF 393 renal) was 35.2 µM. For the same molecule, the TGI (RXF 393 renal) was over 100 µM, the GI50 (UACC-257 melanoma) was 4.32 µM and the TGI (UACC-257 melanoma) was over 100 µM. For the same molecule, the GI50 (DU-145 prostate) was 4.38 µM, the TGI (DU-145 prostate) was over 100 µM and the GI50 (SW-620 colon) was 1.93 µM. For the same molecule, the TGI (SW-620 colon) was over 100 µM, the GI50 (M14 melanoma) was 14.4 µM and the TGI (M14 melanoma) was over 100 µM. For the same molecule, the GI50 (MDA-MB-435) was 0.495 µM, the TGI (MDA-MB-435) was over 100 µM and the GI50 (HCC-2998 colon) was 2.81 µM. The TGI (HCC-2998 colon) was over 100 µM, the GI50 (OVCAR-8 ovarian) was 38.6 µM and the TGI (OVCAR-8 ovarian) was over 100 µM. The GI50 (SN12C renal) was 4.04 µM, the TGI (SN12C renal) was over 100 µM and the GI50 (CAKI-1 renal) was over 100 µM. It also gave a TGI (CAKI-1 renal) of over 100 µM, a GI50 (HCT-116 colon) of 0.777 µM and a TGI (HCT-116 colon) of over 100 µM. For the same molecule, the GI50 (SF-268 CNS) was 0.535 µM, the TGI (SF-268 CNS) was over 100 µM and the GI50 (HOP-92 NSCLC) was 3.51 µM. It also gave a TGI (HOP-92 NSCLC) of 73.5 µM, a GI50 (IGROV1 ovarian) of 0.565 µM and a TGI (IGROV1 ovarian) of over 100 µM. For the same molecule, the GI50 (SK-OV-3 ovarian) was over 56.4 µM, the TGI (SK-OV-3 ovarian) was over 100 µM and the GI50 (PC-3 prostate) was 0.0906 µM. It also gave a TGI (PC-3 prostate) of over 38.5 µM, a GI50 (MCF7 breast) of 2.23 µM and a TGI (MCF7 breast) of over 100 µM. For the same molecule, the GI50 (BT-549 breast) was 7.18 µM, the TGI (BT-549 breast) was over 100 µM and the GI50 (K-562 leukemia) was 2.1 µM. The TGI (K-562 leukemia) was over 100 µM, the GI50 (SF-539 CNS) was 3.41 µM and the TGI (SF-539 CNS) was over 100 µM. It also gave a GI50 (A549 NSCLC) of 0.561 µM, a TGI (A549 NSCLC) of over 100 µM and a GI50 (SK-MEL-28 melanoma) of 7.86 µM. The TGI (SK-MEL-28 melanoma) was over 100 µM, the GI50 (MOLT-4 leukemia) was 2.45 µM and the TGI (MOLT-4 leukemia) was over 100 µM. The GI50 (HOP-62 NSCLC) was 31.2 µM, the TGI (HOP-62 NSCLC) was over 100 µM and the GI50 (CCRF-CEM leukemia) was 1.23 µM. It also gave a TGI (CCRF-CEM leukemia) of over 100 µM, a GI50 (UO-31 renal) of over 100 µM and a TGI (UO-31 renal) of over 100 µM.
